Data from patent publication US20100272791A1, “COMPOSITION HAVING EFFECT ON TREATMENT AND PREVENTION OF DRY EYE SYNDROME” (MD BIOALPHA CO., LTD., priority 2005, published 2010).

Legend:
corneal keratocytes [1] = experiment: Production of hyaluronic acid in corneal keratocytes (b-HABP plate assay); assay type: cell-based; conditions: uridine 0 μM to 10 μM, 48 hours; effect up to 5 μM, concentration-dependent; FIG. 1
Method: Corneal keratocytes were stimulated for 48 hours by treatment of the cells with uridine (0 μM to 10 μM). 100 μl of the cell culture was collected, and reacted with 100 μl of biotinylated hyaluronic acid binding protein (b-HABP, 50 ng/mL) at room temperature for 1 hour. On the day prior to experiments, 20 μg/mL of HA and a solution of 20 mM Na2CO3 were added to a 96-well plate which was then stored in a refrigerator for 24 hours, and washed with a standard assay buffer (SAB) three times. 1% BSA was added to the 96-well plate which was then reacted at room temperature for 90 min and washed with SAB three times to thereby prepare an HA-coated plate. The above-prepared cell culture was added to the HA-coated plate, and reacted with stirring at room temperature for 1 hour. Thereafter, the cell culture thus reacted was washed with SAB three times, followed by addition of Extra-avidin alkaline phosphatase (1:80000), reaction at room temperature for 30 min, and washing with SAB three times. 1 mg/mL of a disodium p-nitrophenyl solution in 100 mM NaCl and 5 mM MgCl was added to the cell culture which was then reacted for 20 to 60 min. Thereafter, 3N NaOH was added to terminate the reaction, and an amount of hyaluronic acid was measured at 405 nm.

corneal keratocytes [2] = experiment: Production of glycosaminoglycan in corneal keratocytes (Biocolor assay kit); assay type: cell-based; conditions: uridine 0 μM to 50 μM, 48 hours, effect from 1 μM, concentration-dependent, FIG. 2
Method: Corneal keratocytes were stimulated for 48 hours by treatment of the cells with uridine (0 μM to 50 μM). The cell culture was collected, and an amount of glycosaminoglycan was measured at 550 nm using a Biocolor assay kit.

corneal keratocytes [3] = experiment: Production of nitric oxide (NO) in H2O2-stimulated corneal keratocytes (Griess reagent); assay type: cell-based; conditions: 100 μM H2O2, then uridine 0 μM to 100 μM, 48 hours, effect up to 50 μM, concentration-dependent, FIG. 3
corneal keratocytes [4] = experiment: Proliferation of corneal keratocytes (CCK-8); assay type: cell-based; conditions: uridine 0 μM to 10 μM, 48 hours; effect from 0.1 μM or higher; FIG. 4
Method: Corneal keratocytes were incubated in a 96-well plate and stimulated with uridine (0 μM to 10 μM) for 48 hours. Cell count was carried out at 450 nm using a Cell counting kit-8 (CCK-8).

ocular epithelial cells [5] = experiment: Production of glycosaminoglycan in corneal epithelial cells (Biocolor assay kit); assay type: cell-based; conditions: uridine 0 μM to 50 μM, 48 hours, concentration-dependent, FIG. 5
Method: Ocular epithelial cells were stimulated for 48 hours by treatment with uridine (0 μM to 50 μM). The cell culture was collected, and an amount of glycosaminoglycan was measured at 550 nm using a Biocolor assay kit.

ocular epithelial cells [6] = experiment: Production of nitric oxide (NO) in H2O2-stimulated corneal epithelial cells (Griess reagent); assay type: cell-based; conditions: 100 μM H2O2, then uridine 0 μM to 100 μM, 48 hours, concentration-dependent, FIG. 6
dry eye-induced rabbits = experiment: Concanavalin A-induced dry eye in rabbits, eye drops, impression cytology; assay type: in vivo, rabbit; conditions: uridine eye drops in phosphate-buffered saline (1% and 5%), compared to 0.1% hyaluronic acid positive control and PBS control; FIG. 7
Method: Dry eye syndrome was induced by causing ocular inflammation via injection of concanavalin A into the lacrimal gland of rabbits (Journal of Ocular Pharmacology & Therapeutics 21(2), 139-148, 2005). Uridine was dissolved to a concentration of […] in a phosphate-buffered saline solution, respectively, and the resulting solutions were used as eye drops. A commercially available 0.1% hyaluronic acid preparation was used as a positive control group, and a phosphate-buffered saline solution was used as a control group. 1% and 5% uridine preparations, the hyaluronic acid preparation and the phosphate-buffered saline solution were respectively dropped into eyes of the dry eye-induced rabbits, and the impression cytology of ocular cells was performed to confirm alleviation of dry eye syndrome.

dry eye patients = experiment: Clinical test, oral uridine in dry eye patients (double blind, placebo); assay type: in vivo, human; conditions: oral uridine 100 mg/day, three times a day for 3 months, versus placebo
Method: At initial point of treatment and two weeks, one month, two months and three months after initiation of treatment, changes in corneal symptoms and conditions and the presence/absence of adverse side effects were objectively evaluated by slit-lamp microscopic examination, measurement of intraocular pressure, ophthalmoscopic examination, Schirmer test, impression cytology and analysis photography of anterior eye segment. In addition, subjective questionnaires of individual patients were prepared, and changes in subjective symptoms of patients and the presence/absence of adverse side effects were observed.

O=c1ccn([C@@H]2O[C@H](CO)[C@@H](O)[C@H]2O)c(=O)[nH]1 [uridine]
production of hyaluronic acid (corneal keratocytes [1]): promoted production of hyaluronic acid | production of glycosaminoglycan (corneal keratocytes [2]): promoted production of glycosaminoglycan | production of nitric oxide (NO) (corneal keratocytes [3]): inhibited production of nitric oxide (NO) | proliferation of cells (corneal keratocytes [4]): promoted proliferation of cells | production of glycosaminoglycan (ocular epithelial cells [5]): promoted production of glycosaminoglycan | production of nitric oxide (NO) (ocular epithelial cells [6]): inhibited production of nitric oxide (NO) | restoration of epithelial cells in the impression cytology of ocular cells (dry eye-induced rabbits): significant restoration of epithelial cells | tear-secretion test (Schirmer test) (dry eye patients; FIG. 8): significant difference | corneal staining (dry eye patients; FIG. 9): significant difference
